Measured values from patent US20230125075A1, “Composition Containing Paper Mulberry Extracts” (LG Household & Health Care Ltd., priority 2020, published 2023).
Several values for one entry are separate records, joined by “and”; a condition that tells them apart may be missing. Equal values may be shown once.

Experiments:
[1] = in vitro; settings: human
Procedure: (§1) First, HepG2 cells were cultured at 37° C. under 5% CO2 atmosphere in a DMEM culture medium containing 10% FBS. Then, the cultured HepG2 cells were seeded on a 24-well plate at a cell density of 3×10^5 cells/well, followed by incubation for 1 day. Then, various concentrations of test substances were added to HepG2 cells, followed by incubation for 24 hours.
(§2) An MTT solution dissolved in PBS at a concentration of 5 mg/mL was diluted to 10% with the culture medium. The solution was dispensed in a volume of 0.5 to 1.0 mL in a 24-well plate and incubated for 4 hours in an incubator.
(§3) After 4 hours of incubation, the culture medium containing the MTT solution was removed, and 1 mL of DMSO was added and was shaken for 10 minutes. Then, absorbance was measured at 540 nm. At this time, as positive controls, the cells were treated with (1) 100 mM ethanol and (2) 100 mM ethanol+100 ppm Silymarin, respectively.
(§4) As a result of the experiment, liver cell viability was quantified. That is, as liver cell viability increases, the liver health improvement effect increases.
(§5) As the absorbance value increases, liver cell viability increases.

[2] = tested on: HepG2 cells; assay: in vitro; settings: human, 24 h, 100 mM
Procedure: as §1, §2, §3, §4, §5

[3] = tested on: THP-1 cells and NK-92 cells; assay: Interferon gamma (IFN-γ) production, ELISA; type: cell-based; settings: positive control
Procedure: To confirm the immune function improvement effect of the plant extracts, the amount of interferon gamma produced in […] and macrophages was measured. First, THP-1 cells, which are macrophages, and NK-92 cells, which are natural killer cells, were suspended in an RPMI (Roswell Park Memorial Institute)-1640 culture medium (for THP-1 cells) and a MEMA (Minimum Essential Media Alpha) culture medium (for NK-92 cells), respectively. The suspended cells were seeded on culture plates (24 wells/96 wells). The plant extracts (sample) diluted to various concentrations were added to the cells. At this time, lipopolysaccharide (LPS) (0.1 to 1 μg/mL) was used as a positive control. The sample-treated cells were placed in a 5% CO2 incubator set to 37° C. and incubated for 24 to 48 hours. Then, the supernatant was taken and used as an analysis sample.
The experiment was performed using an enzyme-linked immunosorbent assay (ELISA) method. After coating a 96-well plate with an IFN-γ primary antibody, 1% bovine serum albumin (BSA) was added to block the remaining space. Then, distilled water (blank), an IFN-γ standard solution, and each sample were added to the wells in an amount of 100 μl and incubated at room temperature for 2 hours. 100 μl of a biotin-bound IFN-γ secondary antibody was added to the wells and incubated at room temperature for 2 hours. 100 μl of avidin-bound horseradish peroxidase (HRP) was added and incubated at room temperature or 37° C. for 30 minutes. 100 μl of a TMB substrate solution was added and incubated at room temperature for 4 to 14 minutes. 50 μl of a stop solution (sulfuric acid) was added to stop the reaction. Absorbance at 450 nm wavelength was measured using an ELISA reader. The IFN-γ content of each sample was calculated based on the absorbance of the standard solution.
In this experiment, the effect of the plant extracts on production of interferon gamma was confirmed. As a result of the experiment, the amount of interferon gamma was quantified. As the level of interferon gamma increases, the degree of improvement in immune function increases.
The absorbance is proportional to the IFN-γ content. In addition, increase in IFN-γ production means that immunity is enhanced, such as promotion of differentiation of T lymphocytes, activation of macrophages, and promotion of production of IgG antibodies in B cells.

| Compound | viability at 24 h, 100 mM [1] | Liver health-Cell viability (% of control) [2] | Immunity-IFNg secretion ([3]; 1 ppm) | Immunity-IFNg secretion (% of control) ([3]; 1 ppm) | Immunity-IFNg secretion ([3]; LPS 1 ppm) | Immunity-IFNg secretion (% of control) ([3]; LPS 1 ppm) |
| --- | --- | --- | --- | --- | --- | --- |
| CCO [Ethanol] | 68.2% | 68.25 (Ethanol % of control | – | – | – | – |
| lipopolysaccharide [LPS] | – | – | 964.24 % of control | 964.24 % of control and 964.24 (LPS % of control | 964.24 % of control | 964.24 % of control |
